From patent publication US8354431B2, “Aryl carboxylic acid cyclohexyl amide derivatives” (Novartis AG, priority 2007, dated 2013)

Experiments:
hCCR2b = target: T1, hCCR2b (Homo sapiens, UniProt P41597); test: CCR2 membrane binding assay (SPA, [125I] MCP-1); settings: table does not name the assay; b437 says 'in these assays'
T1 construct: expressed in transfected cells; host or cells: CHO-dukX
T1 sequence (P41597 1-360 isoform P41597-2): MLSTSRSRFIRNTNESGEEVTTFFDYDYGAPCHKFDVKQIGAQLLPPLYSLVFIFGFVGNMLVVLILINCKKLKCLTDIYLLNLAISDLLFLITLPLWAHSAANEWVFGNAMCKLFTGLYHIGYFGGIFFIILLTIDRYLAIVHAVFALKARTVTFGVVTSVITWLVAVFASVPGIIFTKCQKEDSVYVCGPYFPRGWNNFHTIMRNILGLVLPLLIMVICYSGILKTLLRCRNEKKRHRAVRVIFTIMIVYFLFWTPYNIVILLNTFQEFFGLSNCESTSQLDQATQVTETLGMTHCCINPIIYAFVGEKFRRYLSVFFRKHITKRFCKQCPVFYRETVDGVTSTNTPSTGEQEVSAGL
Protocol: Transfected CHO-dukX cells stably expressing the hCCR2b gene are grown in MEM alpha medium to a confluency of between 70 and 80%. After discarding the medium, 30 ml ice-cold physiological buffer solution containing 1 mM EDTA are added and the cells removed from the plate using a scraper. The cell suspension is centrifuged at 800 g for 10′ at 4° C. and the cell pellet resuspended in buffer. Cell lysis is done using a Polytron PTI300D instrument at 28 000 RPM for 2 times 30 seconds on ice. Membranes are collected by centrifugation at 42 000 g for 20 minutes at 4° C. and subjected to a second round of lysis (Polytron, 28 000 RPM, 2×30 seconds on ice). Following centrifugation at 42 000 g for 20 minutes at 4° C. the membranes are resuspended in buffer at a protein concentration of 2 mg/ml and stored at −80° C. Ten millimolar stock solutions of test compounds in 100% DMSO are prepared. Test compounds are further diluted in buffer to yield the four-fold concentrated solutions for the tests that assayed a range of 10^−10 to 10^−5 M. The SPA assay is performed in a final volume of 200 μl per well in 96 well plates. The components are added per well in the following order: • 50 μl Buffer (+/−test compound) • 50 μl Wheat germ agglutinin-SPA beads (1.25 mg/well) in buffer • 50 μl CCR2B membrane suspension diluted with buffer to 0.04 mg/ml (2 μg/well), alternatively 50,000 cells per well • 50 μl [^125I] MCP-1 in buffer (60 pM final concentration, 2.5 μCi/plate)
After addition of all components the plate is sealed and incubated for 90 minutes at room temperature with constant shaking. Following incubation the plate is centrifuged at 1000 RPM in a Sorvall RC3B centrifuge for 4 minutes at room temperature and counted for 3 minutes per well in a TOP COUNT instrument (Packard). The quench-corrected counts are used for the analysis of radioligand binding.

Human CCR5 = target: T2, Human CCR5 (Homo sapiens, UniProt P51681); test: CCR5 membrane binding assay ([I-125]MIP-1α); settings: table does not name the assay; b437 says 'in these assays'
T2 construct: expressed in transfected cells; host or cells: CHO K1
Protocol: Human CCR5 is used to generate stable transfectants in CHO K1 cells. Membranes prepared from these CCR5 transfectants are used in a radioligand binding assay using 125-1-MIP-1α as a ligand and the compounds of formula I are tested for inhibitory activity. The data are reported as IC50, i.e. the concentration of compound required to achieve 50% inhibition of [I-125]MIP-1α binding. In this assay, compounds of formula I have an IC50 between 0.004 and 10 μM.

T2 sequence (P51681 whole entry): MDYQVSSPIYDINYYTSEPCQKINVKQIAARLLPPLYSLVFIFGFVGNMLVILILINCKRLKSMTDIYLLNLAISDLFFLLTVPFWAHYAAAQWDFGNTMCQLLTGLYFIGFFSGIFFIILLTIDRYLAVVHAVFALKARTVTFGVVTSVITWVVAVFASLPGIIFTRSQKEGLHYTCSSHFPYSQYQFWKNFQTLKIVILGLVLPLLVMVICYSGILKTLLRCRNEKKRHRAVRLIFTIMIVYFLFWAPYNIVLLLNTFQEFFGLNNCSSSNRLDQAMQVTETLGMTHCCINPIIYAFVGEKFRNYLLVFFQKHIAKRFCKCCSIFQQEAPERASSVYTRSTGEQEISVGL

Row | SMILES | IC50 (hCCR2b) [nM] | IC50 (Human CCR5) [nM]
1 | C[C@H]1CN(CC[C@]2(O)CC[C@@H](NC(=O)c3cc4c(OCc5coc6ccc(Cl)cc56)cccc4[nH]3)CC2)CC[C@@H]1O [Example 12, 4-(5-Chloro-benzofuran-3-ylmethoxy)-1H-indole-2-carboxylic acid {4-hydroxy-4-[2-((3S,4S)-4-hydroxy-3-methyl-piperidin-1-yl)-ethyl]-cyclohexyl}-amide] | 0.2 | 0.5
2 | CCOCCCOc1ccc2c(COc3cccc4[nH]c(C(=O)N[C@H]5CC[C@](O)(CCN6CC[C@H](O)[C@@H](C)C6)CC5)cc34)coc2c1 [Example 20, 4-[6-(3-Ethoxy-propoxy)-benzofuran-3-ylmethoxy]-1H-indole-2-carboxylic acid {4-hydroxy-4-[2-((3S,4S)-4-hydroxy-3-methyl-piperidin-1-yl)-ethyl]-cyclohexyl}-amide] | 0.9 | 3.2
3 | C[C@H]1CN(CC[C@]2(O)CC[C@@H](NC(=O)c3cc4c(OCc5coc6cc(O[C@H]7CCOC7)ccc56)cccc4[nH]3)CC2)CC[C@@H]1O [Example 21, 4-{6-[(S)-(Tetrahydro-furan-3-yl)oxy]-benzofuran-3-ylmethoxy}-1H-indole-2-carboxylic acid {4-hydroxy-4-[2-((3S,4S)-4-hydroxy-3-methyl-piperidin-1-yl)-ethyl]-cyclohexyl}-amideamide] | 1.6 | 9

Next, values leading:

Row | IC50 (hCCR2b) [nM] | IC50 (Human CCR5) [nM] | SMILES
4 | 1.5 | 10.6 | COc1cccc2occ(COc3cccc4[nH]c(C(=O)N[C@H]5CC[C@](O)(CCN6CC[C@H](O)[C@@H](C)C6)CC5)cc34)c12 [Example 10, 4-(4-Methoxy-benzofuran-3-ylmethoxy)-1H-indole-2-carboxylic acid {4-hydroxy-4-[2-((3S,4S)-4-hydroxy-3-methyl-piperidin-1-yl)-ethyl]-cyclohexyl}-amide]
5 | 2.7 | 5.8 | COc1ccc2c(COc3cccc4[nH]c(C(=O)N[C@H]5CC[C@](O)(CCN6CC[C@H](O)[C@@H](C)C6)CC5)cc34)coc2c1 [Example 13, 4-(6-Methoxy-benzofuran-3-ylmethoxy)-1H-indole-2-carboxylic acid {4-hydroxy-4-[2-((3S,4S)-4-hydroxy-3-methyl-piperidin-1-yl)-ethyl]-cyclohexyl}-amide]
6 | 12.5 | 12.1 | COc1cccc2c(COc3cccc4[nH]c(C(=O)N[C@H]5CC[C@](O)(CCN6CC[C@H](O)[C@@H](C)C6)CC5)cc34)coc12 [Example 23, 4-(7-Methoxy-benzofuran-3-ylmethoxy)-1H-indole-2-carboxylic acid {4-hydroxy-4-[2-((3S,4S)-4-hydroxy-3-methyl-piperidin-1-yl)-ethyl]-cyclohexyl}-amide]
